Results taken from patent US9670155B2, “Pyrrolidine derivatives as oxytocin/vasopressin V1a receptors antagonists” (ObsEva S.A., priority 2013, dated 2017).

Key:
[1] = test system: spontaneous uterine contractions; test: Inhibition of spontaneous uterine contractions in anesthetized late-term pregnant rat; format: in vivo; conditions: oral route, 10, 30 or 60 mg/kg
From the text: Late-term pregnant (certified at days 19-21 of pregnancy) Sprague Dawley CD (SD) BR female rats (Charles River, Calco, Italy), weighing 350-400 g were anesthetized with urethane (1.05 g/kg, i.p.) and placed on a homeothermic operating table. A midline incision at the hypogastrium level was made, one pregnant uterine horn exposed and its tubal end (near the ovary) was closed by a ligature with surgical silk. Corresponding to the fetus close to the ovary, the uterine-horn wall was incised taking care not to injure the adjacent placenta and PE240 tubing with a latex balloon (9 mm length when empty, capacity 0.1 mL; Radnoti, Monrovia, Calif., USA) on the top was inserted into the lumen and secured to the uterine wall with surgical silk. After filling the internal cavity of the latex balloon with 0.1 mL of sterile physiological saline solution, the catheter was connected to an amplifying/recording system (MacLab, ADInstruments Pty Ltd, Castle Hill, Australia) via a P231D Gould-Statham pressure transducer. […] After the surgical preparation, a 30-min stabilization period was observed and then the effects of increasing doses of compounds of the present invention (given as 10-min i.v. infusion, bolus i.v. or p.o.) were evaluated by measuring the resulting uterine contractions. For the i.v. administration (infusion or bolus) the uterine contractile activity was quantified by calculating the AUC during the 10-min injection period. The percent variation of the AUC values relative to the spontaneous uterine response observed after each compound administration was calculated in comparison to the value recorded before the first dose-administration (basal value). The effect of test compounds of the present invention was evaluated by comparing pre- and post-treatment luminal uterine pressure values. […] Statistical differences between treatment groups at each time-point were determined by using one-way ANOVA followed by Tukey test. […] Contractions were continuously recorded and area-under-the-curve (AUC) integrated over 10-min time intervals.

[2] = Qualitative solubility/crystallisation tests on 15 mg scale; format: physicochemical
[3] = Isomeric interconversion in oral and intravenous dose formulations (HPLC); format: physicochemical; conditions: oral (Labrasol:water 1:1) and intravenous (NP3S) dose formulations, pre- and post-dose
[4] = nominal 30 mg/kg
Method: The animals used in this study were Sprague-Dawley, Crl: CD®BR albino rats. All animals were supplied by Charles River UK Ltd (Margate, Kent, UK). Animals were in the weight range 200-260 g and were approximately 2 months old. Rats were given a unique identity number and were identified by unique tail markings plus cage location.
The dose groups were as follows: 4 female were given an oral dose and 4 female were given an intravenous dose.
Dose formulations were prepared in an appropriate matrix; intravenous doses were prepared in NP3S, whilst oral doses were prepared in Labrasol:water (1:1 v/v).

SMILES: CO/N=C1\C[C@@H](CO)N(C(=O)c2ccc(-c3ccccc3C)cc2)C1 [(3E,5S)-5-(hydroxymethyl)-1-[(2′-methyl-1,1′-biphenyl-4-yl)carbonyl]pyrrolidin-3-one O-methyloxime, reference compound]
- inhibition of uterine contraction (in words) ([1]; any time during the 170-180 minutes observation): no inhibition of uterine contraction

SMILES: CO/N=C1/C[C@@H](CO)N(C(=O)c2ccc(-c3ccccc3C)cc2)C1 [(3Z,5S)-5-(hydroxymethyl)-1-[(2′-methyl-1,1′-biphenyl-4-yl)carbonyl]pyrrolidin-3-one O-methyloxime]
- Dissolves in: ([2]; solvent DIPE, hot): 40 vol
- Dissolves in: ([2]; solvent IPA, hot): 4 vol
- Dissolves in: ([2]; solvent MIBK, hot): 4 vol
- Dissolves in: ([2]; solvent THF, cold): 4 vol
- Dissolves in: ([2]; solvent heptanes): insoluble in 20 vol
- Dissolves in: ([2]; solvent tBuOH, hot): 6 vol
- Dissolves in: ([2]; solvent toluene, cold): 2 vol
- interconversion to E-isomer during dose preparation or administration [3]: no detectable interconversion
- Uterine contractions inhibition ([1]; 5 to 15 min after administration): 15%
- Uterine contractions inhibition ([1]; 170-180 minutes after administration): 42%

SMILES: CO/N=C1/C[C@@H](CO)N(C(=O)c2ccc(-c3ccccc3C)cc2)C1 [[^14C]-(3Z,5S)-5-(hydroxymethyl)-1-[(2′-methyl-1,1′-biphenyl-4-yl)carbonyl]pyrrolidin-3-one O-methyloxime]
- isomeric interconversion in vivo ([4]; female rats, oral or intravenous dose): no detectable isomeric interconversion
- presence of [14C]-E-isomer in plasma ([4]; rat plasma up to 6 hours after oral or intravenous administration): no evidence
